Assay results as given in patent US10988502B2, “Alpha-D-galactoside inhibitors of galectins” (GALECTO BIOTECH AB, priority 2016, dated 2021).
Like-named read-outs stand apart in the source and are kept apart here.

Experiments:
Galectin-1 [1] = target: T1, Galectin-1 (Homo sapiens (Human), UniProt P09382); conditions: read-out: affinity to Galectin-1, cited from earlier work
Target sequence in this assay (P09382 whole entry, species assumed): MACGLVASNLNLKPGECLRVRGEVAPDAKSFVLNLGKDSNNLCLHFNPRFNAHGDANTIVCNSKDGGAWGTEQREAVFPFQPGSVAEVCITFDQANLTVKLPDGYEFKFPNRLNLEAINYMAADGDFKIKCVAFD

Galectin-1 [2] = target: T1, Galectin-1; assay: Fluorescence anisotropy assay, compound as inhibitor of galectin / fluorescein tagged saccharide probe interaction; format: binding
Description: (§1) The affinity of Example 1-32 for galectins were determined by a fluorescence anisotropy assay where the compound was used as an inhibitor of the interaction between galectin and a fluorescein tagged saccharide probe as described Sörme, P., Kahl-Knutsson, B., Huflejt, M., Nilsson, U. J., and Leffler H. (2004) Fluorescence polarization as an analytical tool to evaluate galectin-ligand interactions. Anal. Biochem. 334: 36-47, (Sörme et al., 2004) and Monovalent interactions of Galectin-1 By Salomonsson, Emma; Larumbe, Amaia; Tejler, Johan; Tullberg, Erik; Rydberg, Hanna; Sundin, Anders; Khabut, Areej; Frejd, Torbjorn; Lobsanov, Yuri D.; Rini, James M.; et al, From Biochemistry (2010), 49(44), 9518-9532, (Salonmonsson et al., 2010).
Target sequence in this assay (P09382 whole entry): as the sequence (P09382 whole entry, species assumed) above

Galectin-3 = Galectin-3 (Homo sapiens (Human), UniProt P17931); assay: as above; format: binding
Sequence of Galectin-3 (P17931 whole entry): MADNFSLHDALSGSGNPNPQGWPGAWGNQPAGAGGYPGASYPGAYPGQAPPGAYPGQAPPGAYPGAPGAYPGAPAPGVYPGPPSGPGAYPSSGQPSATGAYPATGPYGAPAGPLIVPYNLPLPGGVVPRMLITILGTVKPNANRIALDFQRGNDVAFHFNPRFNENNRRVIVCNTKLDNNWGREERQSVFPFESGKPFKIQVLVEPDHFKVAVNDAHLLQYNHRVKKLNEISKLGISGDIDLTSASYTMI
Description: as §1

[3] = Permeability (Papp) Caco-2 A>B; format: in vitro ADME; conditions: human, apical (A) to basolateral (B) direction
Description: (§2) The permeability (Papp) (Caco-2 A>B) was determined from the apical (A) to the basolateral (B) direction in adenocarcinoma cells from human colon. The human hepatic stability (CLint) was determined in human hepatocytes.

galectins = conditions: cited from earlier work
[4] = Human hepatic stability (CLint) in human hepatocytes; format: in vitro ADME; conditions: * = no degradation observed under the assay conditions
Description: as §2

| SMILES | Kd (Galectin-1 [2]) | Kd (Galectin-3) | Papp [3] | also measured |
| --- | --- | --- | --- | --- |
| OCC1O[C@@H](S[C@@H]2O[C@H](CO)C(O)C(n3cc(-c4ccsc4)nn3)[C@H]2O)C(O)[C@@H](n2cc(-c3ccsc3)nn2)[C@H]1O (some centres unmarked) |  |  |  | Kd (Galectin-1 [1]; T. Delaine, 2016, ChemBioChem): < 0.01 µM |
| OC[C@H]1O[C@H](Sc2cc(Cl)c(F)c(Cl)c2)[C@H](O)[C@@H](n2cc(-c3cscn3)nn2)[C@H]1O [Example 14, 3,5-Dichloro-4-fluoro-phenyl 3-deoxy-3-[4-(4-thiazolyl)-1H-1,2,3-triazol-1-yl]-1-thio-α-D-galactopyranoside] | 0.23 µM | 6.2 µM | 8.8 ×10⁻⁶ cm/s |  |
| OC[C@H]1O[C@@H](O[C@H]2[C@H](O)[C@@H](O)C(O)O[C@@H]2CO)[C@H](O)[C@@H](O)[C@H]1O (some centres unmarked) [Lactose] |  |  |  | Kd (galectins; reviewed by Leffler, 2001, Leffler et al., 2004, read-out: Kd for all galectins): 100 to 1000 µM |
| OCC1O[C@H](Sc2cc(Cl)c(F)c(Cl)c2)C(O)[C@@H](n2cc(-c3nccs3)nn2)[C@H]1O (some centres unmarked) [Example 5] |  |  | 10.5 ×10⁻⁶ cm/s | CLint scaled [4]: 0.38 mL/min/kg |
| O=C[C@H](O)[C@@H](O)[C@@H](O)[C@H](O)CO [Galactose, D-galactose] |  |  |  | affinity relative to lactose (galectins; compared with lactose): 50-100 times lower; Kd (Galectin-1 [1]; Tejler et. al. 2009): 10000 µM |
| OC[C@H]1O[C@H](Sc2ccc(Cl)c(Cl)c2)[C@H](O)[C@@H](n2cc(-c3ccsc3)nn2)[C@H]1O [Example 1, 3,4-Dichlorophenyl 3-deoxy-3-[4-(3-thiophenyl)-1H-1,2,3-triazol-1-yl]-1-thio-α-D-galactopyranoside] | 0.14 µM | 2.6 µM | 10.1 ×10⁻⁶ cm/s | CLint scaled [4]: 12.1 mL/min/kg |
| OC[C@H]1O[C@H](Sc2cnc(C(F)(F)F)c(Br)c2)[C@H](O)[C@@H](n2cc(-c3ccsc3)nn2)[C@H]1O [Example 4, 5-Bromo-6-trifluoromethyl-pyridin-3-yl 3-deoxy-3-[4-(3-thiophenyl)-1H-1,2,3-triazol-1-yl]-1-thio-α-D-galactopyranoside] | 0.38 µM | 1.2 µM | 2.5 ×10⁻⁶ cm/s | CLint scaled [4]: 11.3 mL/min/kg |

Now from value to compound, other results behind:

| Kd (Galectin-1 [2]) | Kd (Galectin-3) | SMILES | Papp [3] | also measured |
| --- | --- | --- | --- | --- |
| 0.4 µM | 1.6 µM | OC[C@H]1O[C@H](Sc2ccc(Cl)c(Cl)c2)[C@H](O)[C@@H](n2cc(-c3ncc(F)s3)nn2)[C@H]1O [Example 30, 3,4-Dichlorophenyl 3-deoxy-3-[4-(5-fluoro-thiazol-2-yl)-1H-1,2,3-triazol-1-yl]-1-thio-α-D-galactopyranoside] |  |  |
| 0.64 µM | 3.2 µM | Cc1nc(-c2cn([C@@H]3[C@@H](O)[C@@H](Sc4cncc(Br)c4)O[C@H](CO)[C@@H]3O)nn2)cs1 [Example 15, 5-Bromopyridin-3-yl 3-deoxy-3-[4-(2-methyl-4-thiazolyl)-1H-1,2,3-triazol-1-yl]-1-thio-α-D-galactopyranoside] |  |  |
| 0.91 µM | 8.2 µM | OC[C@H]1O[C@H](Sc2cc(Cl)ccc2Cl)[C@H](O)[C@@H](n2cc(-c3nccs3)nn2)[C@H]1O [Example 28, 2,5-Dichlorophenyl 3-deoxy-3-[4-(2-thiazolyl)-1H-1,2,3-triazol-1-yl]-1-thio-α-D-galactopyranoside] |  |  |
| 0.31 µM | 2 µM | OC[C@H]1O[C@H](Sc2cnc(C(F)(F)F)c(Br)c2)[C@H](O)[C@@H](n2cc(-c3nccs3)nn2)[C@H]1O [Example 26, 5-Bromo-6-trifluoromethyl-pyridine-3-yl 3-deoxy-3-[4-(2-thiazolyl)-1H-1,2,3-triazol-1-yl]-1-thio-α-D-galactopyranoside] |  |  |
| 0.17 µM | 2.9 µM | OC[C@H]1O[C@H](Sc2cnc(C(F)(F)F)c(Br)c2)[C@H](O)[C@@H](n2cc(-c3cscn3)nn2)[C@H]1O [Example 11, 5-Bromo-6-trifluoromethyl-pyridin-3-yl 3-deoxy-3-[4-(4-thiazolyl)-1H-1,2,3-triazol-1-yl]-1-thio-α-D-galactopyranoside] |  |  |
| 0.45 µM | 1.25 µM | OC[C@H]1O[C@H](Sc2cncc(Br)c2)[C@H](O)[C@@H](n2cc(-c3cccs3)nn2)[C@H]1O [Example 7, 5-Bromopyridin-3-yl 3-deoxy-3-[4-(2-thiophenyl)-1H-1,2,3-triazol-1-yl]-1-thio-α-D-galactopyranoside] |  |  |
